Results published in patent US6441006B2, “Pharmaceutical compositions and methods for use” (Targacept, Inc., priority 1998, dated 2002).

Key:
[1] = biological target: T1, muscle-type nicotinic acetylcholine receptors (Homo sapiens, UniProt P02708+P07510+Q07001); assay: Interaction with muscle receptors; format: cell-based
T1 construct: endogenous in cells; host or cells: TE671/RD (own knowledge of the cited US 5,597,919)
Method: (§1) The determination of the interaction of the compounds with muscle receptors was carried out in accordance with the techniques described in U.S. Pat. No. 5,597,919 to Dull et al. The maximal activation for individual compounds (Emax) was determined as a percentage of the maximal activation induced by (S)-(−)-nicotine. Reported Emax values represent the amount released relative to (S)-(−)-nicotine on a percentage basis. […] Such preferable compounds have the capability to activate human CNS receptors without activating muscle-type nicotinic acetylcholine receptors. Thus, there is provided a therapeutic window for utilization in the treatment of CNS disorders. […] The compounds begin to cause muscle effects only when employed in amounts of many times those required to activate dopamine release.

[2] = system: ganglia-type nicotinic acetylcholine receptors; assay: Interaction with ganglion receptors; format: cell-based
Method: as §1, with “ganglionic” for “muscle”, “ganglia-type” for “muscle-type”, “cause” for “cause muscle”, “effects at ganglia” for “effects”
The determination of the interaction of the compounds with ganglionic receptors was carried out in accordance with the techniques described in U.S. Pat. No. 5,597,919 to Dull et al. The maximal activation for individual compounds (Emax) was determined as a percentage of the maximal activation induced by (S)-(−)-nicotine. Reported Emax values represent the amount released relative to (S)-(−)-nicotine on a percentage basis.

[3] = biological target: T2, CNS nicotinic receptors; assay: Rubidium release; format: biochemical
T2 construct: Emax, rubidium release; other: relative to 300 uM tetramethylammonium ion
Method: Rubidium release was measured using the techniques described in Bencherif et al., JPET, 279: 1413-1421 (1996). Reported EC50 values are expressed in nM, and Emax values represent the amount of rubidium ion released relative to 300 uM tetranmethylammonium ion, on a percentage basis.

[4] = system: dopamine release; assay: Dopamine release; format: biochemical
Method: Dopamine release was measured using the techniques described in U.S. Pat. No. 5,597,919 to Dull et al. Release is expressed as a percentage of release obtained with a concentration of (S)-(−)-nicotine resulting in maximal effects. Reported EC50 values are expressed in nM, and Emax values represent the amount released relative to (S)-(−)-nicotine on a percentage basis.

[5] = system: laboratory rats; assay: Step-through passive avoidance, scopolamine induced amnesia; format: in vivo, rat; conditions: 0.3 to 3 umol/kg subcutaneous, 0.5 umol/kg scopolamine
Method: A Gemini Avoidance System (San Diego Instruments) were used to evaluate animals in a passive avoidance experiment. During the period of habituation, laboratory rats received a subcutaneous injection of saline. On the acquisition day, each rat received a subcutaneous injection of 0.5 umol/kg scopolamine (or saline in the case of the vehicle control group) 30 minutes prior to being placed in the chambers. Five minutes following scopolamine injection, (or 25 minutes before being placed in the chamber), each rat was administered a subcutaneous injection with one of four doses of the compound. Thirty minutes following the scopolamine or vehicle injection, each rat was placed in the brightly illuminated chamber, facing away from the sliding door. After 10 seconds, the door separating the chambers opened allowing access to the dark chamber. The time to enter the dark chamber was measured. Immediately upon entering the dark chamber, the rat received a mild foot shock (0.5 mAmp) for 2 seconds. Twenty four hours following training, each rat was placed in the light chamber facing away from the sliding door. […] Statistical differences in latencies (latency during acquisition and retention trials) were analyzed by Kruskal-Wallis one-way analysis of variance on ranks followed by the either of two-tailed Mann-Whitney U-test or Newman-Keuls analog test if values of p less than 0.05 were obtained. […]

[6] = biological target: T3, CNS nicotinic receptors (Rattus norvegicus, UniProt P09483+P12390); assay: Binding to relevant receptor sites; conditions: calculated from IC50 values using the method of Cheng et al.
T3 construct: Ki
Method: Binding of the compounds to relevant receptor sites was determined in accordance with the techniques described in U.S. Pat. No. 5,597,919 to Dull et al. Inhibition constants (Ki values), reported in nM, were calculated from the IC50 values using the method of Cheng et al., Biochem, Pharmacol. 22:3099 (1973).

[7] = Emax, percentage of maximal activation induced by (S)-(-)-nicotine

T1 sequence (P02708 21-457): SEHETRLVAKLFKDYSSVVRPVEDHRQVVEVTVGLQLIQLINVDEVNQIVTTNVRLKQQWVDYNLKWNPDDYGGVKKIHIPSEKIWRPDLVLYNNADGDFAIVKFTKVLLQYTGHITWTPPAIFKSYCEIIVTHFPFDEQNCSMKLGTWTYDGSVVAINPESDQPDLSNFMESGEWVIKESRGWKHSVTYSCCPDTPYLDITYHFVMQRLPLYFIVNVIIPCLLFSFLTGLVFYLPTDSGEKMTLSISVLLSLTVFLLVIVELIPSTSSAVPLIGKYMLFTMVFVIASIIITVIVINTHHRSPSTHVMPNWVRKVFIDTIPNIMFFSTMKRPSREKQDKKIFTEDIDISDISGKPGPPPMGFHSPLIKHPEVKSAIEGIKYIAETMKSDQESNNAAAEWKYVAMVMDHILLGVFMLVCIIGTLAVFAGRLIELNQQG
T1 sequence (P11230 24-501 partner): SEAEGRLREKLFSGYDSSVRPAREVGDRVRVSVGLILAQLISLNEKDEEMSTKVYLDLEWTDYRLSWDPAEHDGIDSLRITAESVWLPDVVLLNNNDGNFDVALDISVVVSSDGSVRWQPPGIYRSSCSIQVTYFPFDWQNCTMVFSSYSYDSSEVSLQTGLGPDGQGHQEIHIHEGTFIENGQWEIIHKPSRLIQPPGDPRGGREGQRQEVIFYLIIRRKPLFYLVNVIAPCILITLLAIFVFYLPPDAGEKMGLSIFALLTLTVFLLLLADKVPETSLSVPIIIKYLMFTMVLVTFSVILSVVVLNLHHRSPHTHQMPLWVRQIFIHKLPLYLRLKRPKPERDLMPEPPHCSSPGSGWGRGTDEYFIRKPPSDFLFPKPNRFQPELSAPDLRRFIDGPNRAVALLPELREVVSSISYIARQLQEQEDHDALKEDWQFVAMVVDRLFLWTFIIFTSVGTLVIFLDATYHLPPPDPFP
T1 sequence (Q07001 22-517): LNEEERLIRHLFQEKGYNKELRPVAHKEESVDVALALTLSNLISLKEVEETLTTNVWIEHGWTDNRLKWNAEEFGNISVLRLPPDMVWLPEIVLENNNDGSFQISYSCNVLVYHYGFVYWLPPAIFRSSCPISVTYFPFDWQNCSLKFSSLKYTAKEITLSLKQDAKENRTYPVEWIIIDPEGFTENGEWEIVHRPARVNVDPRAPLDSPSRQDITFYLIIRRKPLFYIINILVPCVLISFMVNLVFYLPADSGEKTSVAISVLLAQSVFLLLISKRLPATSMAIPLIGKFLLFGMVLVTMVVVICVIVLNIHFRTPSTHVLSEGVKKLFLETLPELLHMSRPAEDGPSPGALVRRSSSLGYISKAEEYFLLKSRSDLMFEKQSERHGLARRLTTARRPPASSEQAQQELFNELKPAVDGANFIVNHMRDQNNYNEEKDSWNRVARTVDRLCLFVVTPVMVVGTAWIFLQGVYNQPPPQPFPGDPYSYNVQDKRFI
T1 sequence (P07510 23-517): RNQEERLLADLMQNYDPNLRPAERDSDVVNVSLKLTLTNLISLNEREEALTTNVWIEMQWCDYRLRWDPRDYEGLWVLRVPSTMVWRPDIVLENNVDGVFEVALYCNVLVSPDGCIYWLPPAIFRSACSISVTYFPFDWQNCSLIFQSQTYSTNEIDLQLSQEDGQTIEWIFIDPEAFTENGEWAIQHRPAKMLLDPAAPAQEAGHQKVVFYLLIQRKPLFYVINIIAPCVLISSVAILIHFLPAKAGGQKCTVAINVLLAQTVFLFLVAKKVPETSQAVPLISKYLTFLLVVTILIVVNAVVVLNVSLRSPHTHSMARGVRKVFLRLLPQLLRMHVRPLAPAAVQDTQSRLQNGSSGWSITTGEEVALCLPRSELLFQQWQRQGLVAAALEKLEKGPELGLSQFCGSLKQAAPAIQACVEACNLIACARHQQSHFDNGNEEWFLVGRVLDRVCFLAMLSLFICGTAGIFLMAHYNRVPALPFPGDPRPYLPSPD
T3 sequence (P09483 31-630): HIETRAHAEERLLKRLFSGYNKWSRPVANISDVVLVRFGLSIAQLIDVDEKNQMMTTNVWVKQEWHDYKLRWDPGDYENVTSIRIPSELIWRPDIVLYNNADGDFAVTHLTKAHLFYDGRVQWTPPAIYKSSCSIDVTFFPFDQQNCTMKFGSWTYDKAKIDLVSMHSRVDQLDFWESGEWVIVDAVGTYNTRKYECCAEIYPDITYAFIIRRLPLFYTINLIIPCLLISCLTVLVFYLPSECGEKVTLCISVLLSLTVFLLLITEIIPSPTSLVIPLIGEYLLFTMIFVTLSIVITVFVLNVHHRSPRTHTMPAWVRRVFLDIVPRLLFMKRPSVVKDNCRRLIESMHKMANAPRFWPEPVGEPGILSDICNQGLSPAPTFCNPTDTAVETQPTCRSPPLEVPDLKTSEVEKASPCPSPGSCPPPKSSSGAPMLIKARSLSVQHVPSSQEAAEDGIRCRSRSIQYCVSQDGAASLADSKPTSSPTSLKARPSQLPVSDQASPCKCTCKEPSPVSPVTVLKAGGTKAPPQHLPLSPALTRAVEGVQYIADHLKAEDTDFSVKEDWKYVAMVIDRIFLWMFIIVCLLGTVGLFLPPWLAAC
T3 sequence (P12390 25-500): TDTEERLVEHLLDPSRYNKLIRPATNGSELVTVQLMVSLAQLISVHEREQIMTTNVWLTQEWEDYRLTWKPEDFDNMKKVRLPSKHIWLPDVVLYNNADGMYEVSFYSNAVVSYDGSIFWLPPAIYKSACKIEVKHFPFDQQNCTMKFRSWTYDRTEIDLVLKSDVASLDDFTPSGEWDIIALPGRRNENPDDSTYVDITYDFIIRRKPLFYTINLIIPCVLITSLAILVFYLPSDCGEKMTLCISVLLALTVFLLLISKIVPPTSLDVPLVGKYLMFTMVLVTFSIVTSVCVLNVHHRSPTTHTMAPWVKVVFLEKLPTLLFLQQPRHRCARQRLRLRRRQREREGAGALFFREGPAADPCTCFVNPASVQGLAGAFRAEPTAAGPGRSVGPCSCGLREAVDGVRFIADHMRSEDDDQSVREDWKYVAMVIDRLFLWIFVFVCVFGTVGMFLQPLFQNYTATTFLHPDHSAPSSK

| Molecule | effect at muscle sites [1, 7] | melting point | effect at ganglia sites [2, 7] | Emax at muscle-type receptors ([1]; relative to (S)-(-)-nicotine) | EC50 [3] | Emax, rubidium release ([3]; relative to 300 uM tetramethylammonium ion) | EC50 [4] | Emax, dopamine release ([4]; amount released relative to (S)-(-)-nicotine) | reversal of scopolamine induced amnesia [5] | Emax at ganglionic-type receptors ([2]; relative to (S)-(-)-nicotine) | Ki [6] |
| --- | --- | --- | --- | --- | --- | --- | --- | --- | --- | --- | --- |
| Cl.Cl.c1cncc(OC2CCNCC2)c1 [Example 35, 3-(4-Piperidinyloxy)pyridine Dihydrochloride] | 16% | 71 to 73.5 °C | 9% |  |  |  |  |  |  |  |  |
| (3-(3-Pyridyloxy)propyl)methylamine Hemigalactarate [Example 5] |  |  |  | 0% | 960 nM | 83% | 369 nM | 96% | significant reversal of scopolamine induced amnesia | 93% | 13 nM |
